The values below come from US20070197590A1, “SUBSTITUTED DIPIPERIDINE CCR2 ANTAGONISTS” (priority 2006, published 2007).

In this assay the target is T1, CCR2 (Homo sapiens, UniProt P41597).
T1 construct: host or cells: THP-1 cells
T1 sequence (P41597 1-360 isoform P41597-2): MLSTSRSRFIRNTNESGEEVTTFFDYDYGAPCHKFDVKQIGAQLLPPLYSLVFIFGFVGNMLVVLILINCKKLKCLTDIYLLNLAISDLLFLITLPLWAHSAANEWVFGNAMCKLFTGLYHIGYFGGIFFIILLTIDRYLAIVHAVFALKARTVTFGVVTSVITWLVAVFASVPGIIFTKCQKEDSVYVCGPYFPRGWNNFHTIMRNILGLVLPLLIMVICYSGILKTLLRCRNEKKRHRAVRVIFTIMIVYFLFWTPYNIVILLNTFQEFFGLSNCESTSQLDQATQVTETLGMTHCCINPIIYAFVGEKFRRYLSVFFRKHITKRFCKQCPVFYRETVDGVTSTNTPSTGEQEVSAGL
Briefly: MCP-1 Receptor Binding Assay in THP-1 Cells. As to conditions: for inhibition at 25 µM: test concentration of 25 μM, given where an IC50 value was not obtained, read-out: Inhibition of MCP-1 Binding, percent inhibition; for IC50: THP-1 cells, 0.5 nM 125I labeled MCP-1, 2 hours at 30° C., read-out: Inhibition of MCP-1 Binding IC50. On the procedure:
THP-1 cells were obtained from American Type Culture Collection (Manassas, Va., USA). The THP-1 cells were grown in RPMI-1640 supplemented with 10% fetal bovine serum in a humidified 5% CO2 atmosphere at 37° C. The cell density was maintained […].
THP-1 cells were incubated with 0.5 nM ^125, labeled MCP-1 (Perkin-Elmer Life Sciences, Inc. Boston, Mass.) in the presence of varying concentrations of either unlabeled MCP-1 (R & D Systems, Minneapolis, Minn.) or test compound for 2 hours at 30° C. in a 96 well plate. Cells were then harvested onto a filter plate, dried, and 20 μL of Microscint 20 was added to each well. Plates were counted in a TopCount NXT, Microplate Scintillation & Luminescence Counter (Perkin-Elmer Life Sciences, Inc. Boston, Mass.). Blank values (buffer only) were subtracted from all values and drug treated values were compared to vehicle treated values. 1 μM cold MCP-1 was used for nonspecific binding.
Table 1 lists IC50 values for inhibition of MCP-1 binding to CCR2 obtained for test compounds of the invention.

Usually inhibition stands for the relative decrease from the control value, in per cent. A word on the IC50: it is the concentration at which inhibition is half-maximal.

Each structure is given as a SMILES string.

`CCOC(=O)C(CC1CCN(C(=O)C=Cc2cc(F)cc(F)c2)CC1)N1CCC(c2c[nH]c3ccccc23)CC1` (centres unmarked) [Compound 51, 3-{1-[3-(3,5-difluoro-phenyl)-acryloyl]-piperidin-4-yl}-2-[4-(1H-indol-3-yl)-piperidin-1-yl]-propionic acid ethyl ester]: the inhibition at 25 µM turned out to be 48%.

`CCOC(=O)C(CC1CCN(C(=O)Nc2ccc(Cl)c(Cl)c2)CC1)N1CCC(c2c[nH]c3ccccc23)CC1` (centres unmarked) [Compound 52, 3-[1-(3,4-dichloro-phenylcarbamoyl)-piperidin-4-yl]-2-[4-(1H-indol-3-yl)-piperidin-1-yl]-propionic acid ethyl ester]: the inhibition at 25 µM amounted to 53%.

With `Cc1cccc(C=CC(=O)N2CCC(CC(C(=O)O)N3CCC(c4c[nH]c5ccccc45)CC3)CC2)c1` (centres unmarked) [Compound 53, 2-[4-(1H-indol-3-yl)-piperidin-1-yl]-3-[1-(3-m-tolyl-acryloyl)-piperidin-4-yl]-propionic acid], the inhibition at 25 µM is 48%.

Turning to `O=C(/C=C/c1cc(F)cc(F)c1)N1CCC(CC(CO)N2CCC(c3c[nH]c4ccccc34)CC2)CC1` (centres unmarked) [Compound 54], the IC50 turned out to be 5600 nM.

As to `O=C(/C=C/c1cc(F)c(F)c(F)c1)N1CCC(CC(CO)N2CCC(c3c[nH]c4ccccc34)CC2)CC1` (centres unmarked) [Compound 55], the IC50 was determined as 3500 nM.

For `O=C(/C=C/c1ccc(Cl)c(Cl)c1)N1CCC(CC(CO)N2CCC(c3c[nH]c4ccccc34)CC2)CC1` (centres unmarked) [Compound 56], the IC50 was 5700 nM.

In the case of `Cc1cccc(/C=C/C(=O)N2CCC(CC(CO)N3CCC(c4c[nH]c5ccccc45)CC3)CC2)c1` (centres unmarked) [Compound 57], the IC50 stood at 2600 nM.

In the case of `OCC(CC1CCN(C(=S)Nc2cccc(Br)c2)CC1)N1CCC(c2c[nH]c3ccccc23)CC1` (centres unmarked) [Compound 59, 4-{3-hydroxy-2-[4-(1H-indol-3-yl)-piperidin-1-yl]-propyl}-piperidine-1-carbothioic acid (3-bromo-phenyl)-amide], the IC50 was found to be 6100 nM.

With `O=C(O)C(CC1CCN(C(=O)Nc2ccc(Cl)c(Cl)c2)CC1)N1CCC(c2c[nH]c3ccccc23)CC1` (centres unmarked) [Compound 62, 3-[1-(3,4-dichloro-phenylcarbamoyl)-piperidin-4-yl]-2-[4-(1H-indol-3-yl)-piperidin-1-yl]-propionic acid], the inhibition at 25 µM was found to be 55%.

With `CC(C)(C)OC(=O)N1CCC(C(O)CN2CCC(c3c[nH]c4ccc(NS(C)(=O)=O)cc34)CC2)CC1` (centres unmarked) [Compound 63, 4-{1-hydroxy-2-[4-(5-methanesulfonylamino-1H-indol-3-yl)-piperidin-1-yl]-ethyl}-piperidine-1-carboxylic acid tert-butyl ester], the inhibition at 25 µM amounted to 46%.

As to `COc1ccc(C2CCN(CC(=O)C3CCN(C(=O)/C=C/c4cc(F)c(F)c(F)c4)CC3)CC2)cc1` [Compound 64, 1-(4-{2-[4-(4-methoxy-phenyl)-piperidin-1-yl]-acetyl}-piperidin-1-yl)-3-(3,4,5-trifluoro-phenyl)-propenone], the IC50 is 1300 nM.

For the compound `COc1ccc(C2CCN(CC(NC(=O)N(C)C)C3CCN(C(=O)C=Cc4cc(F)c(F)c(F)c4)CC3)CC2)cc1` (centres unmarked) [Compound 68, 3-(2-[4-(4-methoxy-phenyl)-piperidin-1-yl]-1-{1-[3-(3,4,5-trifluoro-phenyl)-acryloyl]-piperidin-4-yl}-ethyl)-1,1-dimethyl-urea], the IC50 is 2700 nM.

For the compound `O=C(OCc1ccccc1)N1CCC(O)(C(O)CN2CCC(c3c[nH]c4ccccc34)CC2)CC1` (centres unmarked) [Compound 69, 4-hydroxy-4-{1-hydroxy-2-[4-(1H-indol-3-yl)-piperidin-1-yl]-ethyl}-piperidine-1-carboxylic acid benzyl ester], the IC50 is 950 nM.

`O=C(/C=C/c1cc(C(F)(F)F)cc(C(F)(F)F)c1)N1CCC(O)(C(O)CN2CCC(c3c[nH]c4ccccc34)CC2)CC1` (centres unmarked) [Compound 72]: the IC50 amounted to 700 nM.

For the compound `OC(CN1CCC(c2c[nH]c3ccccc23)CC1)C1(O)CCN(C(=S)Nc2cc(Cl)cc(Cl)c2)CC1` (centres unmarked) [Compound 83, 4-hydroxy-4-{1-hydroxy-2-[4-(1H-indol-3-yl)-piperidin-1-yl]-ethyl}-piperidine-1-carbothioic acid (3,5-dichloro-phenyl)-amide], the IC50 turned out to be 860 nM.

In the case of `COc1ccc(C2CCN(CC(O)C3CCN(C(=O)Nc4cc(Cl)c(Cl)cc4F)CC3)CC2)cc1` (centres unmarked) [Compound 90, 4-{1-hydroxy-2-[4-(4-methoxy-phenyl)-piperidin-1-yl]-ethyl}-piperidine-1-carboxylic acid (4,5-dichloro-2-fluoro-phenyl)-amide], the inhibition at 25 µM was 87%.

For `COc1ccc(C2CCN(CC(O)C3CCN(C(=O)Nc4cc(F)cc(C(F)(F)F)c4)CC3)CC2)cc1` (centres unmarked) [Compound 91, 4-{1-hydroxy-2-[4-(4-methoxy-phenyl)-piperidin-1-yl]-ethyl}-piperidine-1-carboxylic acid (3-fluoro-5-trifluoromethyl-phenyl)-amide], the IC50 was found to be 810 nM.

As for `COc1ccc(C2CCN(CC(O)C3(O)CCN(C(=O)/C=C/c4ccc(Cl)cc4)CC3)CC2)cc1` (centres unmarked) [Compound 92], the IC50 is 480 nM.

For `COc1ccc(C2CCN(CC(O)C3CCN(C(=O)Nc4ccc5c(c4)OCO5)CC3)CC2)cc1` (centres unmarked) [Compound 100, 4-{1-hydroxy-2-[4-(4-methoxy-phenyl)-piperidin-1-yl]-ethyl}-piperidine-1-carboxylic acid benzo[1,3]dioxol-5-ylamide], the inhibition at 25 µM was 50%.

Turning to `COc1ccc(C2CCN(CC(O)C3CCN(C(=O)Nc4ccc(C(F)(F)F)cc4Cl)CC3)CC2)cc1` (centres unmarked) [Compound 101, 4-{1-hydroxy-2-[4-(4-methoxy-phenyl)-piperidin-1-yl]-ethyl}-piperidine-1-carboxylic acid (2-chloro-4-trifluoromethyl-phenyl)-amide], the inhibition at 25 µM was found to be 51%.

`COc1ccc(C2CCN(CC(O)C3CCN(C(=S)Nc4cccc(C#N)c4)CC3)CC2)cc1` (centres unmarked) [Compound 104, 4-{1-hydroxy-2-[4-(4-methoxy-phenyl)-piperidin-1-yl]-ethyl}-piperidine-1-carbothioic acid (3-cyano-phenyl)-amide]: the IC50 was 2700 nM.

Consider `COc1ccc(C2CCN(CC(O)C3CCN(C(=S)Nc4cc(F)cc(F)c4F)CC3)CC2)cc1` (centres unmarked) [Compound 109, 4-{1-hydroxy-2-[4-(4-methoxy-phenyl)-piperidin-1-yl]-ethyl}-piperidine-1-carbothioic acid (2,3,5-trifluoro-phenyl)-amide], for which the IC50 turned out to be 4200 nM.

`COc1ccc(C2CCN(CC(O)C3CCN(C(=S)Nc4cc(OC)cc(OC)c4)CC3)CC2)cc1` (centres unmarked) [Compound 111, 4-{1-hydroxy-2-[4-(4-methoxy-phenyl)-piperidin-1-yl]-ethyl}-piperidine-1-carbothioic acid (3,5-dimethoxy-phenyl)-amide]: the IC50 turned out to be 2600 nM.

In the case of `O=C(OCc1ccccc1)N1CCC(O)(C(O)CN2CCC(c3ccc(Cl)cc3)CC2)CC1` (centres unmarked) [Compound 112, 4-{2-[4-(4-chloro-phenyl)-piperidin-1-yl]-1-hydroxy-ethyl}-4-hydroxy-piperidine-1-carboxylic acid benzyl ester], the IC50 was found to be 3700 nM.

As to `COc1ccc(C2CCN(CC(O)C3(O)CCN(C(=S)Nc4cc(OC)cc(OC)c4)CC3)CC2)cc1` (centres unmarked) [Compound 119, 4-hydroxy-4-{1-hydroxy-2-[4-(4-methoxy-phenyl)-piperidin-1-yl]-ethyl}-piperidine-1-carbothioic acid (3,5-dimethoxy-phenyl)-amide], the inhibition at 25 µM came to 43%.

As for `OC(CN1CCC(c2c[nH]c3ccc(N4CCOCC4)cc23)CC1)C1(O)CCN(c2nccc(C(F)(F)F)n2)CC1` (centres unmarked) [Compound 122, 4-{1-hydroxy-2-[4-(5-morpholin-4-yl-1H-indol-3-yl)-piperidin-1-yl]-ethyl}-1-(4-trifluoromethyl-pyrimidin-2-yl)-piperidin-4-ol], the inhibition at 25 µM came out at 51%.

Take `O=C(OCc1ccccc1)N1CCC(O)(C(O)CN2CCC(c3ccc(F)cc3)CC2)CC1` (centres unmarked) [Compound 125, 4-{2-[4-(4-fluoro-phenyl)-piperidin-1-yl]-1-hydroxy-ethyl}-4-hydroxy-piperidine-1-carboxylic acid benzyl ester]: the inhibition at 25 µM is 51%.

As to `O=C(OCc1ccccc1)N1CCC(O)(C(O)CN2CCC(c3ccc(C(F)(F)F)cc3)CC2)CC1` (centres unmarked) [Compound 126, 4-hydroxy-4-{1-hydroxy-2-[4-(4-trifluoromethyl-phenyl)-piperidin-1-yl]-ethyl}-piperidine-1-carboxylic acid benzyl ester], the inhibition at 25 µM was found to be 55%.

Consider `COc1ccc(C2CCN(CC(O)C3CCN(c4ccc([N+](=O)[O-])cn4)CC3)CC2)cc1` (centres unmarked) [Compound 127, 2-[4-(4-methoxy-phenyl)-piperidin-1-yl]-1-(5′-nitro-3,4,5,6-tetrahydro-2H-[1,2′]bipyridinyl-4-yl)-ethanol], for which the inhibition at 25 µM amounted to 59%.
